Experiment [1] addresses T1, Histone deacetylase 1 (Homo sapiens, UniProt Q13547). The conditions noted are these: Sf9, dose 10.0 nM, time 15.0 min.
In experiment [2] the target is T2, ALK tyrosine kinase receptor (Homo sapiens, UniProt Q9UM73). The experiment is described as follows: Inhibition of ALK (unknown origin) at 10 nM preincubated for 10 mins followed by addition of substrate and ATP for 25 mins by caliper EZ reader method. The settings on record: time 35.0 min.
The target of experiment [3] is T1, Histone deacetylase 1. The conditions noted are these: Sf9, dose 100.0 nM, time 15.0 min.
The target of experiment [4] is T2, ALK tyrosine kinase receptor. The experiment is described as follows: Inhibition of ALK (unknown origin) at 100 nM preincubated for 10 mins followed by addition of substrate and ATP for 25 mins by caliper EZ reader method. The conditions noted are these: time 35.0 min.

T1 sequence (Q13547 whole entry): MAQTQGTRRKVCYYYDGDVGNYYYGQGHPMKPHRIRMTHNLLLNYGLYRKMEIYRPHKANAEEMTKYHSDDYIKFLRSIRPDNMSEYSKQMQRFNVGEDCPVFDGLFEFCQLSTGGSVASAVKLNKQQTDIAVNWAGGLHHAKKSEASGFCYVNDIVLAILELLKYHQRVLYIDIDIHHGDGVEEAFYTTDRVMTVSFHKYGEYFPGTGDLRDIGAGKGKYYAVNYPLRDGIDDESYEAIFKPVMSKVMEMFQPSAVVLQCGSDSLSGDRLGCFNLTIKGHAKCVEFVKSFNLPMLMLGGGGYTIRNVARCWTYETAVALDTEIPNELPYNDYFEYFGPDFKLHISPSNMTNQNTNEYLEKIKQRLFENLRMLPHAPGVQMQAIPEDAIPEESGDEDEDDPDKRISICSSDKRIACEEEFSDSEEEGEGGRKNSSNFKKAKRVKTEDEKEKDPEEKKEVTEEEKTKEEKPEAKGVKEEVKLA
T2 sequence (Q9UM73 19-1620 limits assumed): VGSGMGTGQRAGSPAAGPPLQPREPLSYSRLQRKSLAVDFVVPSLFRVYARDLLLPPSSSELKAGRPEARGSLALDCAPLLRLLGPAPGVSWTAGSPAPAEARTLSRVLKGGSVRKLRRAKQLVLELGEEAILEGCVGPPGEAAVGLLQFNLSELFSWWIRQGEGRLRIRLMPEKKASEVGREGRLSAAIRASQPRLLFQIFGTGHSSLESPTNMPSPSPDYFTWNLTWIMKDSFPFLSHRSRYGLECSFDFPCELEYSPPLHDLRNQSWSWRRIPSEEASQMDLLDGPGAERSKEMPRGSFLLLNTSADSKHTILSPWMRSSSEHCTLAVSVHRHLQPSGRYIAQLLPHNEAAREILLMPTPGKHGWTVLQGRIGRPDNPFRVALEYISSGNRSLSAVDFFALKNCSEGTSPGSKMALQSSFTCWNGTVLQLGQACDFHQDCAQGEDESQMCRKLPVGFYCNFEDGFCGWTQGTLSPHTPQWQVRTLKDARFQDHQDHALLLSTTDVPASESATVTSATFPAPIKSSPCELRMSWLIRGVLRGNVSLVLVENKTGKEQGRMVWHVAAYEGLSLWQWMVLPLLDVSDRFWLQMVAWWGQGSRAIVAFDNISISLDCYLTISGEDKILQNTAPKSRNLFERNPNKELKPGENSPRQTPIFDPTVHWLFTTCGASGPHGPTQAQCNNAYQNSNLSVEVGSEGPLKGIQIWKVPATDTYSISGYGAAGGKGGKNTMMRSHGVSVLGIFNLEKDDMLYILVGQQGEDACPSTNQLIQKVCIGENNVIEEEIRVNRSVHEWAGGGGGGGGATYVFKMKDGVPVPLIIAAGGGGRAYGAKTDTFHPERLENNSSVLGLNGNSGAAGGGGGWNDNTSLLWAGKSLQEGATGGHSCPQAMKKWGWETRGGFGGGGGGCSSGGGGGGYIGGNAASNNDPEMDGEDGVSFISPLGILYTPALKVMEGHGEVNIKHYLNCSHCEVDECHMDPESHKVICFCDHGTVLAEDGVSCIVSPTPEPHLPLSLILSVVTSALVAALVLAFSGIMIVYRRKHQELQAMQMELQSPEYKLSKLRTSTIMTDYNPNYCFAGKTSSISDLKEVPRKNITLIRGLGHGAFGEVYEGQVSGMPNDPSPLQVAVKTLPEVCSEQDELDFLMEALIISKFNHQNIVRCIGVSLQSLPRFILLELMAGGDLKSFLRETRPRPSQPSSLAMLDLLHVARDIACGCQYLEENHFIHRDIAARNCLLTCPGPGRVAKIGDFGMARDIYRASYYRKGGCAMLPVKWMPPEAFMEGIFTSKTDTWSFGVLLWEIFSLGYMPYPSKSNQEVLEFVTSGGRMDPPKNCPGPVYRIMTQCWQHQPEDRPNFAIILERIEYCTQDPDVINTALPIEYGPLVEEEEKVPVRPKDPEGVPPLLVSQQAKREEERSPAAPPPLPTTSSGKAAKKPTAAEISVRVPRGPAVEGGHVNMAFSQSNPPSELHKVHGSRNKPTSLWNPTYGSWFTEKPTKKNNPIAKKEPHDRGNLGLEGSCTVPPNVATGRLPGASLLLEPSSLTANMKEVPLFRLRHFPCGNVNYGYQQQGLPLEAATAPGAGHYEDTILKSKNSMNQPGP

By inhibition is commonly meant the relative decrease from the control value, in per cent. For the molecule `Cc1ccccc1Nc1nc(Nc2ccc(NC(=O)CCCCCCC(=O)NO)cc2)ncc1Cl`, the inhibition against Histone deacetylase 1 [1] was determined as 91%; in experiment [2] it was 1.2%; on Histone deacetylase 1 [3], 99%; in experiment [4], 27.8%.

In the case of `CC(C)S(=O)(=O)c1ccccc1Nc1nc(Nc2ccc(C(=O)NCCCC(=O)NO)cc2)ncc1Cl`, the inhibition at Histone deacetylase 1 [1] was -2%; in experiment [2], 91.2%; against Histone deacetylase 1 [3], 4%; in experiment [4], 97.9%.

Take `CC(C)S(=O)(=O)c1ccccc1Nc1nc(Nc2ccc(/C=C/C(=O)NO)cc2)ncc1Cl`: the inhibition came out at 0% against Histone deacetylase 1 [1], 71.6% in experiment [2], 3% against Histone deacetylase 1 [3] and 101% in experiment [4].

In the case of `CC(C)S(=O)(=O)c1ccccc1Nc1nc(Nc2ccc(NC(=O)CCC(=O)NO)cc2)ncc1Cl`, the inhibition at Histone deacetylase 1 [1] is -2%.

On to `Cc1ccc(Nc2nc(Nc3ccc(NC(=O)CCCCCCC(=O)NO)cc3)ncc2Cl)cc1`, for which the inhibition at Histone deacetylase 1 [1] worked out at 86%; in experiment [2], 7.2%; at Histone deacetylase 1 [3], 97%; in experiment [4], 30.1%.

Consider `O=C(CCCCCCC(=O)Nc1ccc(Nc2ncc(Cl)c(Nc3ccccc3Cl)n2)cc1)NO`, for which the inhibition came to 67% against Histone deacetylase 1 [1], 3.1% in experiment [2], 90% on Histone deacetylase 1 [3] and 21.2% in experiment [4].

Regarding `Cc1cnc(Nc2ccc(NC(=O)CCCCCCC(=O)NO)cc2)nc1Nc1ccccc1S(=O)(=O)C(C)C`, the inhibition at Histone deacetylase 1 [1] was determined as 63%; in experiment [2] it was 83.5%; against Histone deacetylase 1 [3] it was 93%; in experiment [4], 97.9%.

On to `CC(C)S(=O)(=O)c1ccccc1Nc1nc(Nc2ccc(NC(=O)CC(=O)NO)cc2)ncc1Cl`, for which the inhibition on Histone deacetylase 1 [1] was -10%; in experiment [2], 92.1%; at Histone deacetylase 1 [3], -7%; in experiment [4] it was 98.2%.

In the case of `CC(C)S(=O)(=O)c1ccccc1Nc1nc(Nc2ccc(NC(=O)CCCCCCC(=O)NO)cc2)ncc1F`, the inhibition against Histone deacetylase 1 [1] was determined as 70%; in experiment [2] it was 66.3%; against Histone deacetylase 1 [3] it was 94%; in experiment [4], 96%.

With `Cc1c(Nc2ncc(Cl)c(Nc3ccccc3S(=O)(=O)C(C)C)n2)cccc1C(=O)NCCCCCC(=O)NO`, the inhibition against Histone deacetylase 1 [1] stood at 7%; in experiment [2], 86.8%; at Histone deacetylase 1 [3] it was 49%; in experiment [4] it was 98.5%.

`COc1cccc(Nc2nc(Nc3ccc(NC(=O)CCCCCCC(=O)NO)cc3)ncc2C(F)(F)F)c1`: the inhibition is 56% at Histone deacetylase 1 [1], 4.9% in experiment [2], 89% against Histone deacetylase 1 [3] and 7.6% in experiment [4].

For `CC(C)S(=O)(=O)c1ccccc1Nc1nc(Nc2ccc(C(=O)NCCCCCC(=O)NO)cc2)ncc1Cl`, the inhibition at Histone deacetylase 1 [1] was 55%; in experiment [2], 89.4%; against Histone deacetylase 1 [3], 101%; in experiment [4], 98.1%.

`CC(C)S(=O)(=O)c1ccccc1Nc1nc(Nc2cccc(C(=O)NCCCCCC(=O)NO)c2)ncc1Cl`: the inhibition at Histone deacetylase 1 [1] was found to be 35%; in experiment [2], 83.2%; at Histone deacetylase 1 [3], 84%; in experiment [4] it was 97.3%.

For the molecule `CC(C)S(=O)(=O)c1ccccc1Nc1nc(Nc2cccc(C(=O)NO)c2)ncc1Cl`, on Histone deacetylase 1 [1], the inhibition is -3%.

Consider `Cc1cc(C(=O)NCCCCCC(=O)NO)ccc1Nc1ncc(Cl)c(Nc2ccccc2S(=O)(=O)C(C)C)n1`, for which the inhibition was found to be 58% at Histone deacetylase 1 [1], 93.1% in experiment [2], 96% on Histone deacetylase 1 [3] and 97.3% in experiment [4].

Regarding `COc1cc(C(=O)NCCCCCC(=O)NO)ccc1Nc1ncc(Cl)c(Nc2ccccc2S(=O)(=O)C(C)C)n1`, the inhibition at Histone deacetylase 1 [1] stood at 45%; in experiment [2], 97.3%; on Histone deacetylase 1 [3], 86%; in experiment [4] it was 98.5%.

Consider `COc1cccc(Nc2nc(Nc3ccc(NC(=O)CCCCCCC(=O)NO)cc3)ncc2Cl)c1`, for which the inhibition is 83% against Histone deacetylase 1 [1], 1.2% in experiment [2], 97% on Histone deacetylase 1 [3] and 20% in experiment [4].

As to `CC(C)S(=O)(=O)c1ccccc1Nc1nc(Nc2cccc(NC(=O)CCCCC(=O)NO)c2)ncc1Cl`, the inhibition against Histone deacetylase 1 [1] came out at 10%; in experiment [2] it was 87.2%; at Histone deacetylase 1 [3], 41%; in experiment [4] it was 98%.

Regarding `O=C(CCCCCCC(=O)Nc1ccc(Nc2ncc(Cl)c(Nc3ccccc3)n2)cc1)NO`, the inhibition at Histone deacetylase 1 [1] came out at 84%; in experiment [2], 4.9%; on Histone deacetylase 1 [3], 99%; in experiment [4] it was 36.9%.

Take `CC(C)S(=O)(=O)c1ccccc1Nc1nc(Nc2cccc(C(=O)NCCCCC(=O)NO)c2)ncc1Cl`: the inhibition against Histone deacetylase 1 [1] was determined as 23%; in experiment [2], 81%; at Histone deacetylase 1 [3] it was 65%; in experiment [4] it was 97.7%.

`CC(C)S(=O)(=O)c1ccccc1Nc1nc(Nc2ccc(C(=O)NO)cc2)ncc1Cl`: the inhibition was 0.1% on Histone deacetylase 1 [1] and 81.1% in experiment [2].

Take `COc1ccc(C)c(Nc2nc(Nc3ccc(NC(=O)CCCCCCC(=O)NO)cc3)ncc2Cl)c1`: the inhibition was -0.7% in experiment [2] and 4.9% in experiment [4].

On to `COc1cnc(Nc2ccc(NC(=O)CCCCCCC(=O)NO)cc2)nc1Nc1ccccc1S(=O)(=O)C(C)C`, for which the inhibition amounted to 68% on Histone deacetylase 1 [1], 60.4% in experiment [2], 91% against Histone deacetylase 1 [3] and 94.9% in experiment [4].

Consider `O=C(CCCCCCC(=O)Nc1ccc(Nc2ncc(Cl)c(Nc3ccccc3Br)n2)cc1)NO`, for which the inhibition on Histone deacetylase 1 [1] turned out to be 67%; in experiment [2], 0.2%; against Histone deacetylase 1 [3], 88%; in experiment [4] it was 25%.

Consider `Cc1cc(Nc2ncc(Cl)c(Nc3ccccc3S(=O)(=O)C(C)C)n2)ccc1C(=O)NCCCCCCC(=O)NO`, for which the inhibition worked out at 35% against Histone deacetylase 1 [1], 98.1% in experiment [2], 78% against Histone deacetylase 1 [3] and 101% in experiment [4].

In the case of `Cc1ccc(Nc2ncc(Cl)c(Nc3ccccc3S(=O)(=O)C(C)C)n2)cc1NC(=O)CCCCC(=O)NO`, the inhibition at Histone deacetylase 1 [1] is 8%; in experiment [2], 76.9%; on Histone deacetylase 1 [3] it was 39%; in experiment [4], 98.5%.

Turning to `CC(C)S(=O)(=O)c1ccccc1Nc1nc(Nc2cccc(C(=O)NCCCCCCC(=O)NO)c2)ncc1Cl`, the inhibition on Histone deacetylase 1 [1] stood at 41%; in experiment [2], 82.6%; on Histone deacetylase 1 [3], 84%; in experiment [4], 96.6%.

On to `CC(C)S(=O)(=O)c1ccccc1Nc1nc(Nc2ccc(C(=O)NCCCCCCC(=O)NO)c(Cl)c2)ncc1Cl`, for which the inhibition at Histone deacetylase 1 [1] is 24%; in experiment [2], 70.3%; against Histone deacetylase 1 [3], 67%; in experiment [4] it was 100%.

`CC(C)S(=O)(=O)c1ccccc1Nc1nc(Nc2ccc(C(=O)NCCCCCC(=O)NO)c(Cl)c2)ncc1Cl`: the inhibition was 45% at Histone deacetylase 1 [1], 87.7% in experiment [2], 93% against Histone deacetylase 1 [3] and 97.8% in experiment [4].

For `CC(C)S(=O)(=O)c1ccccc1Nc1nc(Nc2cccc(C(=O)NCCC(=O)NO)c2)ncc1Cl`, the inhibition against Histone deacetylase 1 [1] is -1%; in experiment [2], 81%; at Histone deacetylase 1 [3], 4%; in experiment [4], 99.1%.

Turning to `Cc1cccc(Nc2nc(Nc3ccc(NC(=O)CCCCCCC(=O)NO)cc3)ncc2Cl)c1`, the figures for the inhibition in experiment [2] and in experiment [4] were 0.2% and 4.9%, respectively.

These data come from ChEMBL document CHEMBL4828709, “Discovery of 2,4-pyrimidinediamine derivatives as potent dual inhibitors of ALK and HDAC” (Eur J Med Chem, 2021).
